Assay results: patent US9617258B2, “Pyrrolo[2,3-d]pyrimidinyl, pyrrolo[2,3-b]pyrazinyl and pyrrolo[2,3-d]pyridinyl acrylamides” (Pfizer Inc., priority 2013, dated 2017)

Assays:
[1] = tested on: IL-15 induced P-STAT5 in human PBMC; test: PBMC IL-15 induced P-STAT5; assay type: cell-based; conditions: IL-15 stimulated, read-out: PBMC IL15-STAT5 IC50
Procedure: PBMC IL-15 Induced P-STAT5
Frozen human PBMC (200-250 million cells/vial) was thawed at 37° C. The cells were transferred to 10 mL warm medium in a 50-mL conical tube, and centrifuged at 1,200 RPM at room temperature for 5 min. The supernatant was aspirated. […] After adding 47 ml D-PBS (37° C.) to PBMC/FBS suspension, centrifuging at 1,200 RPM at room temperature for 5 min, and aspirating the supernatant, the cells were resuspended in 20 mL warm RPMI medium. Ninety μL of cell suspension were pipetted per well in a 96-well, deep-well, V-bottom plate, and the plate was incubated at 37° C. for 30 min. […] After adding 0.8 mL staining buffer per well, the plates were centrifuged at 1,200 RPM (Beckman GS-6R or Sorvall Legend) at room temperature for 5 min, and again the supernatant was aspirated using a 8-channel or 12-channel manifold. The plate was vortexed, and 0.35 mL 90% methanol/10% H2O (−20° C.) was added per well, and the plate incubated on ice for 20 min. After again adding 0.8 mL staining buffer per well, the plates were centrifuged at 1,200 RPM (Beckman GS-6R or Sorvall Legend) at room temperature for 5 min, and again the supernatant was aspirated using a 8-channel or 12-channel manifold, and then 0.8 mL Staining buffer was added per well. […] Samples were analyzed using a BD Calibur™ or BD FACSCanto™ flow cytometer equipped with the BD High Throughput Sampler.

[2] = tested on: IL-15 induced STAT5 phosphorylation in human whole blood lymphocytes; test: HWB IL-15 induced STAT5 phosphorylation assay; assay type: cell-based; conditions: Lymphocyte, IL-15 stimulated, read-out: HWB-IL15-pSTAT5 IC50
Procedure: HWB IL-15 Induced STAT5 Phosphorylation Assay
After mixing and incubating for 45 minutes at 37° C., 5 μl D-PBS (unstimulated control) or 20× stocks of 5 μl human IL-15 (final concentration is 50 ng/ml) were added, and mixed three times. After incubating 15 minutes at 37° C., 1× Lyse/Fix Buffer (BD Phosflow 5× Lyse/Fix Buffer) was added to all wells at 1000 μl/well, then incubated for 20 minutes at 37° C. and spun 5 mins at 1200 rpm. […] Following incubating at 4° C. over night, all the samples were transferred to 96-well polypropylene U-bottom plate, and checked by flow cytometry gated on total lymphocytes.

JAK3 enzyme [3] = target: T1, JAK3 enzyme (Homo sapiens (Human), UniProt P52333); test: JAK Caliper enzyme assay at 1 mM ATP; assay type: biochemical
T1 sequence (P52333 whole entry, species assumed): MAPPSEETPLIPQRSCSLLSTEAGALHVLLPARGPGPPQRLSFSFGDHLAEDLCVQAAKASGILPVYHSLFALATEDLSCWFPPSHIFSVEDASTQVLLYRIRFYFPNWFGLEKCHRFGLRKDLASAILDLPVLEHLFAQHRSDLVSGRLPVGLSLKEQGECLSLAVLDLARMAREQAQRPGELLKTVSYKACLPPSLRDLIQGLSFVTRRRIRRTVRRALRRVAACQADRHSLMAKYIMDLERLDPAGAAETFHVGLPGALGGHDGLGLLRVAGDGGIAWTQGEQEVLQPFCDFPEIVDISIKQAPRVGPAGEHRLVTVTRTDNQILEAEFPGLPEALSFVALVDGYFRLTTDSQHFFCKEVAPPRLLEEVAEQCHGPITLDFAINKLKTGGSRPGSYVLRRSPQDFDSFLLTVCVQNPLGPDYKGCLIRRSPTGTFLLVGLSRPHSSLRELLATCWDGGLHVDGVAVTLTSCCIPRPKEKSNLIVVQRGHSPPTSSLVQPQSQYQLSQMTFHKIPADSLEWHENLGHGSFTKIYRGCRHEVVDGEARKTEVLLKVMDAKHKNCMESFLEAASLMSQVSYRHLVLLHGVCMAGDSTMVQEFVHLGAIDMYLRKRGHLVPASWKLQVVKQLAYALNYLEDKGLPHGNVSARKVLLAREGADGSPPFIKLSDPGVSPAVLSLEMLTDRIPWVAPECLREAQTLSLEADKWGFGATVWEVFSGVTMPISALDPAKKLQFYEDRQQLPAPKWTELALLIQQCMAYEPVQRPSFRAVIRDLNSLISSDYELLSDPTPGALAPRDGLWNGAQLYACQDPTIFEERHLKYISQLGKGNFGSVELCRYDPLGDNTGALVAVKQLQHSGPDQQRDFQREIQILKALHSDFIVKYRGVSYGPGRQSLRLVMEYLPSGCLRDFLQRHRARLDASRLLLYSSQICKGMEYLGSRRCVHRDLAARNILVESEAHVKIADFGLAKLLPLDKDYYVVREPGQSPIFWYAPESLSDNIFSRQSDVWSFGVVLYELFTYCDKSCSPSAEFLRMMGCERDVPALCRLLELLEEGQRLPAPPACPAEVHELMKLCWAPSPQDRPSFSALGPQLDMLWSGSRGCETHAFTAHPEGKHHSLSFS
Procedure: (§1) JAK Caliper Enzyme Assay at 4 μM or 1 mM ATP
(§2) Test article was solubilized in dimethyl sulfoxide (DMSO) to a stock concentration of 30 mM. An 11-point half log dilution series was created in DMSO with a top concentration of 600 μM. […] The compound plates were diluted 1 to 60 resulting in a top final assay compound concentration of 10 μM and a 2% DMSO concentration.
(§3) Test article and assay controls were added to a 384-well plate. Reaction mixtures contained 20 mM HEPES, pH 7.4, 10 mM magnesium chloride, 0.01% bovine serum albumin (BSA), 0.0005% Tween 20, 4 μM or 1 mM ATP and 1 μM peptide substrate. […] The assays were initiated by the addition 1 nM JAK3 enzyme and were incubated at room temperature 75 minutes for JAK3. Enzyme concentrations and incubation times were optimized for each new enzyme preps and were modified slightly over time to ensure 20%-30% phosphorylation. The assays were stopped with a final concentration of 10 mM EDTA, 0.1% Coating Reagent and 100 mM HEPES, pH=7.4. The assay plates were placed on a Caliper Life Science Lab Chip 3000 (LC3000) instrument, and each well was sampled using appropriate separation conditions to measure the unphosphorylated and phosphorylated peptide.

JAK3 enzyme [4] = target: T1, JAK3 enzyme; test: JAK Caliper enzyme assay at 4 μM ATP; assay type: biochemical
Procedure: as §1, §2, §3

**Q.** How did the IC50 [1] turn out when `C=CC(=O)N1C[C@H](Nc2ncnc3[nH]ccc23)[C@H]2CC[C@@H]1C2` (racemic) [Example 116, Rac-1-((1R,4R,5S)-4-(7H-pyrrolo[2,3-d]pyrimidin-4-ylamino)-2-azabicyclo[3.2.1]octan-2-yl)prop-2-en-1-one] was run?
**A.** Its IC50 is over 10 µM.

**Q.** What about the IC50 [2] of the same molecule?
**A.** The IC50 was over 10 µM.

**Q.** And the IC50 (JAK3 enzyme [3])?
**A.** Its IC50 is over 10 µM.

**Q.** And the IC50 (JAK3 enzyme [4])?
**A.** The IC50 was 0.418 µM.
